Results: US20130005696A1, “BUFADIENOLIDE DERIVATIVES, PREPARING PROCESS THEREOF, COMPOSITION COMPRISING THE SAME AND THE USE THEREOF” (priority 2011, published 2013)

Key:
[1] = tested on: HeLa human cervical carcinoma cell line; test: In vitro antitumor activity assay (SRB), HeLa; format: cell-based; details: read-out: IC50, inhibitory activity on cell proliferation of HeLa cell line
Source text: (§1) HeLa human cervical carcinoma cell line, A-549 human non-small cell lung carcinoma cell line, NCI-H2228 human lung carcinoma cell line, NCI-H460 human lung carcinoma cell line, MDA-MB-231 human breast carcinoma cell line, MCF-7 human breast carcinoma cell line, Bel-7402 human hepatic carcinoma cell line, Hep3B human hepatic carcinoma cell line, QGY-7703 human hepatic carcinoma cell line, MV-4-11 human leukemic cell line, DAUDI human leukemic cell line, Jurkat human leukemic cell line, A498 renal carcinoma cell line, LoVo human colon carcinoma cell line, HCT1116 human colon carcinoma cell line, A431 human skin carcinoma cell line, PANC-1 human pancreatic carcinoma cell line, U87-MG human brain carcinoma cell line, SH-SY5Y human brain carcinoma cell line, RPMI-8226 human bone carcinoma cell line, HT1080 human fibrosarcoma cell line, PC-3 human prostatic carcinoma cell line, AGS human gastric adenocarcinoma cell line, and BGC-823 human gastric adenocarcinoma cell line were purchased from the Cell Bank of the Chinese Academy of Sciences.
(§2) The positive control is bufalin (formulated according to the common method), its purity is 98% or more by HPLC-UV and its structure is identified by NMR. The compounds to be tested and the positive control were diluted with normal saline with a concentration gradient of 10^−4 M, 10^−5 M, 10^−6 M, 10^−7 M and 10^−8 M.
(§3) According to cell growth rate, tumor cells in the log phase of growth were seeded into 96-well culture plates at 100 μL per well, and allowed to attach for 24 hours, followed by addition of a test compound or positive control at 10 μL per well. For each concentration, the test was carried out in triplicate wells. Solvent control wells with addition of normal saline into cell culture and a blank well containing only cell culture medium but without cells for zeroing were also included. The tumor cells were incubated for 72 hours at 37° C. under 5% CO2, and then the culture medium (RPMI-1640) was removed. The cells were fixed with 10% cool TCA by incubating for 1 h at 4° C., washed with distilled water for 5 times, and dried naturally in the air. A solution of SRB (Sigma) (4 mg/mL) in 1% glacial acetic acid was added at 100 μL per well, and the cells were stained for 15 minutes at room temperature, and the supernatant was discarded. The plates were washed for 5 times with 1% acetic acid, and dried in air. Finally, Tris solution was added at 150 μL per well, and the absorbance (A) was measured at a wavelength of 515 nm using a microplate reader. The growth inhibition on tumor cell proliferation was calculated according to the following equation:
(§4) Growth Inhibition (%)=[(Absorbance of negative control−Absorbance of blank)−(Absorbance of sample−Absorbance of blank)]/(Absorbance of negative control−Absorbance of blank)×100%
(§5) Drug concentration: 10 μM, 1 μM, 0.1 μM, 10 nM, 1 nM, 0.1 nM.
(§6) IC50 was fitted by GraphPad Prism 4.

[2] = tested on: A-549 human non-small cell lung carcinoma cell line; test: In vitro antitumor activity assay (SRB), A549; format: cell-based; details: Homo sapiens; A549, 72 h, Table 3; read-out: IC50 (72 h), A549
Source text: as §1, §2, §3, §4, §5, §6

[3] = tested on: MCF-7 human breast carcinoma cell line; test: In vitro antitumor activity assay (SRB), MCF-7; format: cell-based; details: Homo sapiens, MCF7; MCF-7, 72 h, Table 3; read-out: IC50 (72 h), MCF-7
Source text: as §1, §2, §3, §4, §5, §6

[4] = tested on: PC-3 human prostatic carcinoma cell line; test: In vitro antitumor activity assay (SRB), PC-3; format: cell-based; details: Homo sapiens, Prostatic carcinoma cell; PC-3, 72 h, Table 3; read-out: IC50 (72 h), PC-3
Source text: as §1, §2, §3, §4, §5, §6

[5] = tested on: MV-4-11 human leukemic cell line; test: In vitro antitumor activity assay (SRB), MV-4-11; format: cell-based; details: Homo sapiens, MV4-11; MV-4-11, 72 h, Table 3
Source text: as §1, §2
(§7) According to cell growth rate, tumor cells in the log phase of growth were seeded into 96-well culture plates at 100 μL per well, and allowed to attach for 24 hours, followed by addition of a test compound or positive control at 10 μL per well. For each concentration, the test was carried out in triplicate wells. […] Finally, Tris solution was added at 150 μL per well, and the absorbance (A) was measured at a wavelength of 515 nm using a microplate reader. The growth inhibition on tumor cell proliferation was calculated according to the following equation:
(§8) Growth Inhibition (%)=[(Absorbance of negative control−Absorbance of blank)−(Absorbance of sample−Absorbance of blank)]/(Absorbance of negative control−Absorbance of blank)×100% […]

[6] = tested on: Jurkat human leukemic cell line; test: In vitro antitumor activity assay (SRB), Jurkat; format: cell-based; details: Homo sapiens, 72 h, Table 3
Source text: as §1, §2, §7, §8

[7] = tested on: DAUDI human leukemic cell line; test: In vitro antitumor activity assay (SRB), Daudi; format: cell-based; details: Homo sapiens, 72 h, Table 3
Source text: as §1, §2, §7, §8

[8] = tested on: HT1080 human fibrosarcoma cell line; test: In vitro antitumor activity assay (SRB), HT1080; format: cell-based; details: Homo sapiens, HT-1080; HT1080, 72 h, Table 3
Source text: as §1, §2, §7, §8

[9] = tested on: NCI-H460 human lung carcinoma cell line; test: In vitro antitumor activity assay (SRB), NCI-H460; format: cell-based; details: Homo sapiens; NCI-H460, 72 h, Table 3
Source text: as §1, §2, §7, §8

[10] = tested on: NCI-H2228 human lung carcinoma cell line; test: In vitro antitumor activity assay (SRB), NCI-H2228; format: cell-based; details: Homo sapiens; NCI-H2228, 72 h, Table 3
Source text: as §1, §2, §7, §8

[11] = tested on: AGS human gastric adenocarcinoma cell line; test: In vitro antitumor activity assay (SRB), AGS; format: cell-based; details: Homo sapiens, 72 h, Table 3
Source text: as §1, §2, §7, §8

[12] = tested on: BGC-823 human gastric adenocarcinoma cell line; test: In vitro antitumor activity assay (SRB), BGC-823; format: cell-based; details: Homo sapiens; BGC-823, 72 h, Table 3
Source text: as §1, §2, §7, §8

[13] = tested on: MDA-MB-231 human breast carcinoma cell line; test: In vitro antitumor activity assay (SRB), MDA-MB-231; format: cell-based; details: Homo sapiens; MDA-MB-231, 72 h, Table 3
Source text: as §1, §2, §7, §8

[14] = tested on: HepG2 human-derived tumor cell line; test: In vitro antitumor activity assay (SRB), HepG2; format: cell-based; details: Homo sapiens; HepG2, 72 h, Table 3
[15] = tested on: Hep3B human hepatic carcinoma cell line; test: In vitro antitumor activity assay (SRB), Hep3B; format: cell-based; details: Homo sapiens, 72 h, Table 3
Source text: as §1, §2, §7, §8

[16] = tested on: QGY-7703 human hepatic carcinoma cell line; test: In vitro antitumor activity assay (SRB), QGY7703; format: cell-based; details: Homo sapiens, QGY-7703; QGY7703, 72 h, Table 3
Source text: as §1, §2, §7, §8

[17] = tested on: A498 renal carcinoma cell line; test: In vitro antitumor activity assay (SRB), A498; format: cell-based, human; details: Homo sapiens; A498, 72 h, Table 3
Source text: as §1, §2, §7, §8

[18] = tested on: HCT-116 human-derived tumor cell line; test: In vitro antitumor activity assay (SRB), HCT-116; format: cell-based; details: Homo sapiens; HCT-116, 72 h, Table 3
Source text: as §1, §2, §7, §8

[19] = tested on: A431 human skin carcinoma cell line; test: In vitro antitumor activity assay (SRB), A431; format: cell-based; details: Homo sapiens, A-431; A431, 72 h, Table 3
Source text: as §1, §2, §7, §8

[20] = tested on: PANC-1 human pancreatic carcinoma cell line; test: In vitro antitumor activity assay (SRB), PANC-1; format: cell-based; details: Homo sapiens; PANC-1, 72 h, Table 3
Source text: as §1, §2, §7, §8

[21] = tested on: RPMI-8226 human bone carcinoma cell line; test: In vitro antitumor activity assay (SRB), RPMI8226; format: cell-based; details: Homo sapiens, RPMI-8226; RPMI8226, 72 h, Table 3
Source text: as §1, §2, §7, §8

[22] = tested on: U87-MG human brain carcinoma cell line; test: In vitro antitumor activity assay (SRB), U87-MG; format: cell-based; details: Homo sapiens, U-87 MG, 72 h, Table 3
Source text: as §1, §2, §7, §8

C[C@]12CC[C@H](OC(=O)NC3CCNCC3)C[C@H]1CC[C@@H]1[C@@H]2CC[C@]2(C)[C@@H](c3ccc(=O)oc3)CC[C@]12O [II1E-01]
IC50 [1]: 1.4 nM | IC50 [2]: 0.77 ± 0.28 nM | IC50 [3]: 9.97 ± 1.45 nM | IC50 [4]: 0.41 ± 0.1 nM | IC50 [5]: 1.12 ± 0.29 nM | IC50 [6]: 1.09 ± 0.26 nM | IC50 [7]: 2.86 ± 0.21 nM | IC50 [8]: 2.9 ± 0.33 nM | IC50 [9]: 0.56 ± 0.05 nM | IC50 [10]: 2.5 ± 0.34 nM | IC50 [11]: 9.62 ± 0.69 nM | IC50 [12]: 0.81 ± 0.07 nM | IC50 [13]: 7.46 ± 0.33 nM | IC50 [14]: 0.51 ± 0.04 nM | IC50 [15]: > 1000 nM | IC50 [16]: 1.11 ± 0.08 nM | IC50 [17]: 0.4 ± 0.03 nM | IC50 [18]: 2.91 ± 0.09 nM | IC50 [19]: 2.62 ± 0.19 nM | IC50 [20]: 0.72 ± 0.19 nM | IC50 [21]: 1.53 ± 0.1 nM | IC50 [22]: 1.28 ± 0.36 nM
